One data set has as its system MSSA. As to the kind of experiment: Coumarin staphylocoagulase fluorescence assay, MSSA. It counts as cell-based, Staphylococcus aureus. Conditions: 500 μM coumarin; MSSA 10^6; FIG. 10. How it is done: (§1) As described for the LGX system, clinical isolates of Methicillin Resistant Staphylococcus Aureus (MRSA), Methicillin Sensitive Staphylococcus Aureus (MSSA), Staphylococcus Epidermidis and Eschericia coli were cultured on nutrient agar prior to being grown overnight in nutrient broth under shaking conditions at 37° C. To determine the effects of varying bacterial concentrations with respect to bacterial strains and N-t-BOC-val-pro-arg-7-amido-4-methylcoumarin concentrations on staphylocoagulase activity, a direct comparison between the LGX system and the existing use of N-t-BOC-val-pro-arg-7-amido-4-methylcoumarin as a means of detecting staphylocoagulase was necessary (Ford et al, 1999).
(§2) 100 μM and 500 μM solutions of coumarin solution were prepared in 1×PBS with the addition of 0.05 M Tris Buffer and 0.1 M NaCl to maintain a pH of 8.5 using N-t-BOC-val-pro-arg-7-amido-4-methylcoumarin dissolved in MeOH. Furthermore, 100 μM and 500 μM of human prothrombin was added to the solution. 90 μl of […] of N-t-BOC-val-pro-arg-7-amido-4-methylcoumarin solution was added to varying concentrations of bacteria (10^6, 10^5, 10^4, 10^3, 10^2 and 10^0, respectively) in a microliter plate and staphylocoagulase activity determined by fluorescence spectrophotometry (Excitation of 355 nm, Emmission of 460 nm) at 15 minute intervals over a 6 hour time period. […]

For data set [1], the system named is MRSA and MSSA. Briefly: Coumarin staphylocoagulase assay, MRSA and MSSA. The following applies: 100 μM coumarin; MRSA and MSSA 10^6 and 10^5; FIG. 11. It counts as cell-based, Staphylococcus aureus. How it is done:
as §1, §2

The test system of data set [2] is MRSA, MSSA, S. epidermidis and E. coli. Briefly: Coumarin staphylocoagulase fluorescence assay, all four bacterial species. The format is cell-based. The following applies: 500 μM coumarin, FIG. 10. How it is done: as §1, §2
Data set [3] shares this test system. As to the kind of experiment: Coumarin assay, absorbance at 385 nm, all bacterial types. Conditions: 100 μM coumarin, FIG. 15. It counts as cell-based. As to the method:
To compare the efficacy of this staphylocoagulase assay with current, well established “gold standard” methods of coagulase detection such as a coumarin assay, coagulase test and latex agglutination test, bacterial isolates were prepared in suspension as above and clinical isolates of each respective strain was cultured overnight on nutrient agar. 90 μl of bacterial suspension was added to a solution consisting of 100 μM solutions of N-t-BOC-val-pro-arg-7-amido-4-methylcoumarin prepared in 1×PBS with the addition of 0.05 M Tris Buffer and 0.1 M NaCl to maintain a pH of 8.5. Staphylocoagulase activity was determined by measuring the absorbance at 385 nm at 15 minute intervals over a 6 hour time period. It should be noted that a concentration of 795 μM of the coumarin dye is usually required post-culture (10^6-10^8 bacteria) in order to observe a significant chromogenic response.

The subject of data set [4] is MRSA and MSSA. The following applies: post-culture (10^6-10^8 bacteria); cited from earlier work.
A further data set relates to bacterial viability. Briefly: Effect of methanol on bacterial viability (colony count). The following applies: 2 hours incubation, all bacteria concentrations (10^2-10^6), plated on nutrient agar overnight. The format is cell-based. How it is done: Tests were also run to validate that the methanol had no adverse effects on the growth of a number of bacterial strains up to a ˜5% methanol solution. Varying concentrations of methanol (0.25%, 0.5%, 1%, 2.5 5, 4% and 5%) were incubated with each bacterial species also at varying concentrations (10^2-10^6) for 2 hours prior to plating on nutrient agar to assess the effects of the solvent on bacterial viability.

Residues, ends and D or L forms follow the SMILES beside them. *: point of attachment. AMC = Cc1cc(=O)oc2cc(N*)ccc12; Boc = CC(C)(C)OC(=O)*

Turning to `Cc1cc(=O)oc2cc(NC(=O)[C@H](CCCNC(=N)N)NC(=O)[C@@H]3CCCN3C(=O)[C@@H](NC(=O)OC(C)(C)C)C(C)C)ccc12` [N-t-BOC-val-pro-arg-7-amido-4-methylcoumarin] (Boc-Val-Pro-Arg-{AMC}), in the data set on MSSA, the fluorescence entry is listed as “a slight increase was observed”. In addition, the “discrimination between bacterial samples by fluorescence” value in the data set with MRSA and MSSA [1] is “no discrimination between bacterial samples”. Further, the “discrimination between bacterial species by fluorescence” value in data set [2] (all bacterial species 10^6) is “little discrimination between the fluorescence of all samples”. The “fluorescence over the 6 hour time period” value in data set [2] (high and low concentrations of MRSA, MSSA, S. epidermidis and E. coli) is “no increase in fluorescence was observed”. The “absorbance over the 6 hour time period” value in data set [3] (10^5, 10^4, 10^3 and 10^2) was “no increase or variance between bacterial strains”; in data set [3] (10^6 of all bacterial types), “little increase over the 6 hour time period”. Besides, the “concentration usually required to observe a significant chromogenic response” value in the data set with MRSA and MSSA [4] was 795 µM.

`CO` [methanol]: the “methanol concentration up to which bacterial viability was not compromised” value in the data set with bacterial viability was “up to 4%”.

These data come from US10400263B2, “Tripeptide rhodamine compound” (Kingston Uninversity Higher Education Corporation, priority 2012, dated 2019).
